Measured values as given in US20210030703A1, “USE OF CALORIC RESTRICTION MIMETICS FOR POTENTIATING CHEMO-IMMUNOTHERAPY FOR THE TREATMENT OF CANCERS” (INSERM (INSTITUT NATIONAL DE LA SANTÉ ET DE LA RECHERCHE …, priority 2018, published 2021).

Experiments:
PD-1 = PD-1 expression in tumors; type: in vivo, C57B1/6 mice; settings: MTX alone or together with fasting or CRMs; data not shown
Protocol: 3 or 11 days post-chemotherapy (d3 or d11), mice were euthanized and the tumors were withdrawn and placed in gentleMACS C tubes (ref 130-096-334 from Miltenyi Biotec™) previously filled with 1 ml of DMEM or RPMI medium, and immediately put on ice. After a mechanical (with scissors) and chemical digestion (thanks to the tumor dissociation kit and the gentleMACS Octo Dissociator, ref 130-096-730 and 130-096-427, respectively, from Miltenyi Biotec™), tumors were filtered (using MACS smartstrainers […], ref 130-110-916 from Miltenyi Biotec™), washed twice with PBS and distributed in a 96-wells round bottom plate.
Then, cells were stained with a live dead dye (ref L34959 from ThermoFisher Scientific™) and an FCblock receptor targeting antibody. […] Finally, cells were resuspended in FACS buffer and analyzed on a flow cytometer BD LSR II.

CTLA-4 = CTLA-4 expression in tumors; type: in vivo, C57B1/6 mice; settings: MTX alone or together with fasting or CRMs; data not shown
MCA205 fibrosarcoma = experiment: Subcutaneous MCA205 fibrosarcoma: tumor growth, cure and survival under chemo-immunotherapy; type: in vivo, C57B1/6 mice
mammary carcinomas = experiment: Hormone-induced (MPA/DMBA) orthotopic mammary tumor model; type: in vivo, BALB/c mice; settings: combination of MTX-based chemotherapy and HC, versus MTX and HC alone; data not shown
From the text: Breast cancers were induced in young (7-weeks-old) female BALB/c mice by implantation of medroxyprogesterone acetate (MPA)-releasing pellets followed by gavage with the DNA damaging agent 7,12-Dimethylbenz[a]anthracene (DMBA) for the following 6 weeks. Note that the interval between the last DMBA injection and the manifestation of palpable breast cancer lesions is rather variable. When palpable tumors appeared, mice were randomized into the different experimental groups and treated with intraperitoneal injections of hydroxycitrate (100 mg/kg) at d-1 and d0 and/or intraperitoneal injections of 5.17 mg/kg of Mitoxantrone. Neutralizing anti-CD11b antibodies (clone M1/70, ref BE0007 from BioXCell™) or their isotype control (clone LTF-2, ref BE0090 from BioXCell™) were then injected at d-1, d0 and d7. Tumor growth was followed by calculating tumor surface (mm^2) with the formula length×width.

[1] = background, reference (9); cited from earlier work
whole MCA205 tumors = experiment: RNA-seq analyses of whole tumors; type: in vivo, C57B1/6 mice; settings: day 3 post-chemotherapy (MTX); data not shown

## O=C1c2c(O)ccc(O)c2C(=O)c2c(NCCNCCO)ccc(NCCNCCO)c21 [MTX, mitoxantrone]
PD-1
  Expression of PD-1: No changes
CTLA-4
  Expression of CTLA-4: No changes

## O=C(O)CC(O)(C(=O)O)C(O)C(=O)O (centres unmarked) [HC, hydroxycitrate]
MCA205 fibrosarcoma; CRM added to OXA+PD-1 blockade
  Cure rate: 80%
  Cured mice: 16 out of 20
MCA205 fibrosarcoma; figure legend FIG. 7
  Efficacy of OXA and anti-PD-1 combination when the CRM is added: further enhanced
Mammary carcinomas
  Reduction of tumor growth and prolongation of mouse survival: highly efficient in reducing tumor growth and prolonging mouse survival
[1]
  Efficacy of anticancer chemotherapy with immunogenic cell death (ICD) inducers: able to improve the efficacy
Whole MCA205 tumors
  Evidence of local immunostimulation: failed to yield convincing evidence
